This is an account of results in patent US9969742B2, “Imidazotriazinone compounds” (Ironwood Pharmaceuticals, Inc., priority 2012, dated 2018).

Format in all cases: biochemical
One assay has as its target T1, PDE1B (Homo sapiens, UniProt Q01064).
T1 construct: purchased Reaction Biology Corporation, Malvern, Pa
In words: Phosphodiesterase enzyme screening assay, PDE1B. The procedure, abridged:
(§1)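 Human PDE isoforms were incubated 1 h at room temperature with 4.0 μM fluorescent cGMP substrate in 100 mM HEPES pH 7.5, 5 mM MgCl2, 1 mM DTT, 0.003% Brij. EDTA stop buffer ended reactions, and substrate and 5′-GMP product were separated by microfluidic electrophoretic mobility shift with laser-induced fluorescence. Inhibition was calculated against control wells.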

Another assay has as its target T2, PDE1A (Homo sapiens, UniProt P54750).
T2 construct: purchased Reaction Biology Corporation, Malvern, Pa
In words: Phosphodiesterase enzyme screening assay, PDE1A. The procedure, abridged: as §1

The next assay deals with T3, PDE9A2 (Homo sapiens, UniProt O76083).
T3 construct: purchased Reaction Biology Corporation, Malvern, Pa
Nature of the assay: Phosphodiesterase enzyme screening assay, PDE9A2. As to conditions: read-out: Band (PDE9A2 IC50). The procedure, abridged:
as §1

Where [1] appears, read: ratio of IC50 values, value greater than 1 indicates greater selectivity for PDE9A2.
Where [2] appears, read: ratio of IC50 values, PDE1B versus PDE9A2, value greater than 1 = greater selectivity for PDE9A2.
Setting [3] is: ratio of IC50 values, PDE1A versus PDE9A2, value greater than 1 = greater selectivity for PDE9A2.
[4] abbreviates: Table 3, 4.0 μM cGMP substrate, 1 hour at R.T.
[5] abbreviates: ratio of IC50 values PDE1B / PDE9A2, value greater than 1 = greater selectivity for PDE9A2.
Where [6] appears, read: ratio of IC50 values PDE1A / PDE9A2, value greater than 1 = greater selectivity for PDE9A2.
[7] abbreviates: 4.0 μM cGMP substrate, 1 hour at R.T.
[8] abbreviates: Table 1, ratio of IC50 values, value greater than 1 indicates greater selectivity for PDE9A2.
[9] abbreviates: Table 1, 10 concentrations, 4.0 μM cGMP substrate, 1 hour at R.T.

As a reminder, the IC50 is the concentration that gives 50% inhibition.

Where two headings read alike, the source gives them in different places. Some results are limits rather than exact numbers.

T1 sequence (Q01064 whole entry): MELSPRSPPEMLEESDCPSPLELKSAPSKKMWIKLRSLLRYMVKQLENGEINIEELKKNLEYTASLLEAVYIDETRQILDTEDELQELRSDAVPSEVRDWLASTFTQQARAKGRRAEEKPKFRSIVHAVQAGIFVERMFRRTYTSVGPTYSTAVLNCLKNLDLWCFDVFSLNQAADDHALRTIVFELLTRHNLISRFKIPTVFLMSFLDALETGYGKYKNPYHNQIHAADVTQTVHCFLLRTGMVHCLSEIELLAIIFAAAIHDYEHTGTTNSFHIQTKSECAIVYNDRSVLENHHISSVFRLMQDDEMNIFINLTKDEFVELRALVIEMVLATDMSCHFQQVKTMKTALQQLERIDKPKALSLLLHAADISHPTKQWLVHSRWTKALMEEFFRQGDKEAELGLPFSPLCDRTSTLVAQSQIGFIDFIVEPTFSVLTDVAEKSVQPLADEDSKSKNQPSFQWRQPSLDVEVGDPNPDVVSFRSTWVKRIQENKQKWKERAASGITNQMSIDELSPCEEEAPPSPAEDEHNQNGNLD
T3 sequence (O76083 1-533 isoform O76083-2): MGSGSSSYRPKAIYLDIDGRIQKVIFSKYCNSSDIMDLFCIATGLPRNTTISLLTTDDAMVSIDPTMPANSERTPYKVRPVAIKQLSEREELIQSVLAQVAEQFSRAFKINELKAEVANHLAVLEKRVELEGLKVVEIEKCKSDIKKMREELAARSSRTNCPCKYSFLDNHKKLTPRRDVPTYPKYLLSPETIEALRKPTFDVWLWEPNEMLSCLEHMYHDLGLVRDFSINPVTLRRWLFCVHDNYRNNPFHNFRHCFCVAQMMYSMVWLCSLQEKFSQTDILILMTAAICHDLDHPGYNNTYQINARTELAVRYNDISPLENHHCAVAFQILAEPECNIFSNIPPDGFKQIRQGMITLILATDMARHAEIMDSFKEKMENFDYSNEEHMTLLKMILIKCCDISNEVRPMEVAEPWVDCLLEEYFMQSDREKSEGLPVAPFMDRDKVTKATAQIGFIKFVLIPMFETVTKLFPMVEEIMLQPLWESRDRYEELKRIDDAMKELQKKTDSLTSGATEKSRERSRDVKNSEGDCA
T2 sequence (P54750 whole entry): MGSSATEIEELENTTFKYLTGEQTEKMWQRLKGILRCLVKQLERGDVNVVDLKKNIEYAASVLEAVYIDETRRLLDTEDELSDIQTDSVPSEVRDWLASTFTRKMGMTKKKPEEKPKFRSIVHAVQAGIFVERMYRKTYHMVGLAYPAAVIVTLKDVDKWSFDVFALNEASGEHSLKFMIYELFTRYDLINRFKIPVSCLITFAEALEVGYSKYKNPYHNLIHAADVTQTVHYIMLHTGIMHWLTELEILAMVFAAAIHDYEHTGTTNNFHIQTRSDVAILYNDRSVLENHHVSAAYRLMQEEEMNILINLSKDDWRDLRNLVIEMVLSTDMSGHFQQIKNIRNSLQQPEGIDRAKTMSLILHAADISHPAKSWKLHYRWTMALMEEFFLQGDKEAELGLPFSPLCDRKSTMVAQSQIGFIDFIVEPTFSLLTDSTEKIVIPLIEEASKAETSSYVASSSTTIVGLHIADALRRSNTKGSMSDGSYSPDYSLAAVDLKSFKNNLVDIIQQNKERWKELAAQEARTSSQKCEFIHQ

As to `CC1CN(Cc2nccn2C)CC1c1nn2c(C3CCOCC3)ncc2c(=O)[nH]1` (single isomer, unassigned; (+)) [(+)-2-((3,4-trans)-4-methyl-1-((1-methyl-1H-imidazol-2-yl)methyl)pyrrolidin-3-yl)-7-(tetrahydro-2H-pyran-4-yl)imidazo[5,1-f][1,2,4]triazin-4(3H)-one], the “PDE1B selectivity (versus PDE9A2)” value at PDE1B (setting [1]) was 107. Besides, the “PDE1A selectivity (versus PDE9A2)” value at PDE1A (setting [1]) was found to be 197. The IC50 at PDE9A2 was under 1 µM.
On to `CC1CN(Cc2ccn(C)n2)CC1c1nn2c(C3CCOCC3)ncc2c(=O)[nH]1` (single isomer, unassigned; (+)) [(+)-2-((3,4-trans)-4-methyl-1-((1-methyl-1H-pyrazol-3-yl)methyl)pyrrolidin-3-yl)-7-(tetrahydro-2H-pyran-4-yl)imidazo[5,1-f][1,2,4]triazin-4(3H)-one], for which the “PDE1B selectivity (versus PDE9A2)” value at PDE1B (setting [2]) was 721. For the same compound, the “PDE1A selectivity (versus PDE9A2)” value on PDE1A (setting [3]) is recorded as 628. The concentration for half-maximal inhibition (IC50) on PDE9A2 (setting [4]) was under 1 µM.
As for `CC1CN(Cc2cnn(C)c2)CC1c1nn2c(C3CCOCC3)ncc2c(=O)[nH]1` (single isomer, unassigned; (+)) [(+)-2-((3,4-trans)-4-methyl-1-((1-methyl-1H-pyrazol-4-yl)methyl)pyrrolidin-3-yl)-7-(tetrahydro-2H-pyran-4-yl)imidazo[5,1-f][1,2,4]triazin-4(3H)-one], on PDE1B (setting [2]), the “PDE1B selectivity (versus PDE9A2)” value came to 434. Moreover, the “PDE1A selectivity (versus PDE9A2)” value at PDE1A (setting [3]) is recorded as 247. The IC50 on PDE9A2 (setting [4]) was under 1 µM.
For `CC1CN(Cc2ccnn2C)CC1c1nn2c(C3CCOCC3)ncc2c(=O)[nH]1` (single isomer, unassigned; (+)) [(+)-2-((3,4-trans)-4-methyl-1-((1-methyl-1H-pyrazol-5-yl)methyl)pyrrolidin-3-yl)-7-(tetrahydro-2H-pyran-4-yl)imidazo[5,1-f][1,2,4]triazin-4(3H)-one], on PDE1B (setting [2]), the “PDE1B selectivity (versus PDE9A2)” value is listed as 370. Also, at PDE1A (setting [3]), the “PDE1A selectivity (versus PDE9A2)” value turned out to be 243. Further, at PDE9A2 (setting [4]), the IC50 was under 1 µM.
In the case of `Cc1ncccc1CN1CC(C)C(c2nn3c(C4CCOCC4)ncc3c(=O)[nH]2)C1` (single isomer, unassigned; (+)) [(+)-2-((3,4-trans)-4-methyl-1-((2-methylpyridin-3-yl)methyl)pyrrolidin-3-yl)-7-(tetrahydro-2H-pyran-4-yl)imidazo[5,1-f][1,2,4]triazin-4(3H)-one], the “PDE1B selectivity (versus PDE9A2)” value on PDE1B (setting [5]) is 201. For the same compound, the “PDE1A selectivity (versus PDE9A2)” value on PDE1A (setting [6]) is on record as 139. In addition, the IC50 on PDE9A2 (setting [7]) is under 1 µM.
As for `Cc1cc(CN2CC(C)C(c3nn4c(C5CCOCC5)ncc4c(=O)[nH]3)C2)ccn1` (single isomer, unassigned; (+)) [(+)-2-((3,4-trans)-4-methyl-1-((2-methylpyridin-4-yl)methyl)pyrrolidin-3-yl)-7-(tetrahydro-2H-pyran-4-yl)imidazo[5,1-f][1,2,4]triazin-4(3H)-one], the “PDE1B selectivity (versus PDE9A2)” value on PDE1B (setting [5]) was 421. The “PDE1A selectivity (versus PDE9A2)” value at PDE1A (setting [6]) was 232. Also, the IC50 at PDE9A2 (setting [7]) is under 1 µM.
Take `Cc1nccc(CN2CC(C)C(c3nn4c(C5CCOCC5)ncc4c(=O)[nH]3)C2)n1` (single isomer, unassigned; (+)) [(+)-2-((3,4-trans)-4-methyl-1-((2-methylpyrimidin-4-yl)methyl)pyrrolidin-3-yl)-7-(tetrahydro-2H-pyran-4-yl)imidazo[5,1-f][1,2,4]triazin-4(3H)-one]: the “PDE1B selectivity (versus PDE9A2)” value at PDE1B (setting [8]) is given as 400. For the same compound, on PDE1A (setting [8]), the “PDE1A selectivity (versus PDE9A2)” value was found to be 184. The 50% inhibitory concentration (IC50) on PDE9A2 (setting [9]) is under 1 µM.
For `Cc1ncc(CN2CC(C)C(c3nn4c(C5CCOCC5)ncc4c(=O)[nH]3)C2)cn1` (single isomer, unassigned; (+)) [(+)-2-((3,4-trans)-4-methyl-1-((2-methylpyrimidin-5-yl)methyl)pyrrolidin-3-yl)-7-(tetrahydro-2H-pyran-4-yl)imidazo[5,1-f][1,2,4]triazin-4(3H)-one], in that order: 60, 80 and under 1 µM.
With `Cc1nc(CN2CC(C)C(c3nn4c(C5CCOCC5)ncc4c(=O)[nH]3)C2)cs1` (single isomer, unassigned; (+)) [(+)-2-((3,4-trans)-4-methyl-1-((2-methylthiazol-4-yl)methyl)pyrrolidin-3-yl)-7-(tetrahydro-2H-pyran-4-yl)imidazo[5,1-f][1,2,4]triazin-4(3H)-one], at PDE1B (setting [1]), the “PDE1B selectivity (versus PDE9A2)” value is recorded as 19. Besides, the “PDE1A selectivity (versus PDE9A2)” value at PDE1A (setting [1]) was determined as 12. The IC50 at PDE9A2 is under 1 µM.
Turning to `Cc1ncc(CN2CC(C)C(c3nn4c(C5CCOCC5)ncc4c(=O)[nH]3)C2)s1` (single isomer, unassigned; (+)) [(+)-2-((3,4-trans)-4-methyl-1-((2-methylthiazol-5-yl)methyl)pyrrolidin-3-yl)-7-(tetrahydro-2H-pyran-4-yl)imidazo[5,1-f][1,2,4]triazin-4(3H)-one], the “PDE1B selectivity (versus PDE9A2)” value on PDE1B (setting [8]) turned out to be 243. In addition, the “PDE1A selectivity (versus PDE9A2)” value on PDE1A (setting [8]) is 129. At PDE9A2 (setting [9]), the IC50 was under 1 µM.
For `CC1CN(Cc2ccc[nH]c2=O)CC1c1nn2c(C3CCOCC3)ncc2c(=O)[nH]1` (single isomer, unassigned; (+)) [(+)-2-((3,4-trans)-4-methyl-1-((2-oxo-1,2-dihydropyridin-3-yl)methyl)pyrrolidin-3-yl)-7-(tetrahydro-2H-pyran-4-yl)imidazo[5,1-f][1,2,4]triazin-4(3H)-one] the same measures were 940, 424 and under 1 µM.
As for `CC1CN(Cc2ncccc2C(F)(F)F)CC1c1nn2c(C3CCOCC3)ncc2c(=O)[nH]1` (single isomer, unassigned; (+)) [(+)-2-((3,4-trans)-4-methyl-1-((3-(trifluoromethyl)pyridin-2-yl)methyl)pyrrolidin-3-yl)-7-(tetrahydro-2H-pyran-4-yl)imidazo[5,1-f][1,2,4]triazin-4(3H)-one], the “PDE1B selectivity (versus PDE9A2)” value at PDE1B (setting [2]) was 58. Further, the “PDE1A selectivity (versus PDE9A2)” value on PDE1A (setting [3]) is listed as 123. The IC50 on PDE9A2 (setting [4]) is under 1 µM.
For `Cc1cccnc1CN1CC(C)C(c2nn3c(C4CCOCC4)ncc3c(=O)[nH]2)C1` (single isomer, unassigned; (+)) [(+)-2-((3,4-trans)-4-methyl-1-((3-methylpyridin-2-yl)methyl)pyrrolidin-3-yl)-7-(tetrahydro-2H-pyran-4-yl)imidazo[5,1-f][1,2,4]triazin-4(3H)-one], in that order: 298, 242 and under 1 µM.
With `CC1CN(Cc2cnn3c2CCCC3)CC1c1nn2c(C3CCOCC3)ncc2c(=O)[nH]1` (single isomer, unassigned; (+)) [(+)-2-((3,4-trans)-4-methyl-1-((4,5,6,7-tetrahydropyrazolo[1,5-a]pyridin-3-yl)methyl)pyrrolidin-3-yl)-7-(tetrahydro-2H-pyran-4-yl)imidazo[5,1-f][1,2,4]triazin-4(3H)-one], the “PDE1B selectivity (versus PDE9A2)” value at PDE1B (setting [1]) came to 337. Further, the “PDE1A selectivity (versus PDE9A2)” value at PDE1A (setting [1]) is listed as 337. In addition, the IC50 at PDE9A2 is under 1 µM.
